Experimental data reported in patent US7786310B2, “Small molecule transcriptional activation domains” (The Regents of the University of Michigan, priority 2004, dated 2010).

Tests used:
HeLa nuclear extracts = details: for ability to up-regulate transcription (activity in words, compared with AD 1): Example 9 numbering (FIG. 13/14A), ATF14 as positive control, FIG. 15
[1] = test system: transcription mediated by 4; assay: competition/squelching experiment: free activation domain added to in vitro transcription reactions containing the DNA-bound activator; type: biochemical, human; details: 1-10 μM concentration of free activation domain; FIG. 7
Description: In this experiment, micromolar concentrations of free activation domain are added to transcription reactions containing the DNA-bound activator and the corresponding affect on transcription levels is measured. Results with one of the activation domains (4) is shown (See, e.g., FIGS. 7-8).

Row | Compound | ability to up-regulate transcription (activity in words, compared with AD 1) (HeLa nuclear extracts) | suppression of transcription mediated by 4 [1] [%] | transcriptional activation when the activation domain is not covalently linked to methotrexate (not localized to DNA) (HeLa nuclear extracts; isoxazolidine and methotrexate hydrazide 1 added separately in the same reaction, FIG. 6)
1 | 2-(4({(6-(Amino-methylcarbaminidoylimino-methyl)-pyrazin-2-ylmethyl)-methylamino}-methyl)-benzoylamino)-4-(2-(2-benzyl-(5RS)-hydroxymethyl-(3RS)-isobutylisoxazolidin-3-yl)-ethylidene-hydrazinocarbonyl)-(S)-butyric acid [isoxazolidine 6] | function well as transcriptional ADs | – | –
2 | 2-(4({(6-(Amino-methylcarbaminidoylimino-methyl)-pyrazin-2-ylmethyl)-methylamino}-methyl)-benzoylamino)-4-(2-benzyl-(3RS)-(2-hydroxy-ethyl)-3-isobutylisoxazolidin-(5RS)-ylmethylene-hydrazinocarbonyl)-(S)-butyric acid [isoxazolidine 4] | indistinguishable from that of AD 1 | – | –
3 | CC(C)C[C@]1(C/C=N/NC(=O)CC[C@H](NC(=O)c2ccc(N(C)Cc3cnc4nc(N)nc(N)c4n3)cc2)C(=O)O)C[C@](C)(CO)ON1CC(=O)O (racemic) [isoxazolidine 3, 2-(4({(6-(Amino-methylcarbaminidoylimino-methyl)-pyrazin-2-ylmethyl)-methylamino}-methyl)-benzoylamino)-4-{2-((5RS)-hydroxymethyl-2-(hydroxy-2-oxopropyl)-(3RS)-isobutyl-isoxazolidin-3-yl)-ethylidene-hydrazinocarbonyl}-(S)-butyric acid] | indistinguishable from that of AD 1 | – | –
4 | COC(OC)C1CC(CCO)(CC(C)C)N(Cc2ccccc2)O1 (centres unmarked) [S8, 2-(2-Benzyl-5-dimethoxymethyl-3-isobutyl-isoxazolidin-3-yl)-ethanol] | – | ~50 | Little activation
